# From ChEMBL document CHEMBL1122620, “Inhibition of renin by substrate analogue inhibitors containing the olefinic amino acid 5(S)-amino-7-methyl-3(E)-octenoic acid” (J Med Chem, 1984)
# Where a SMILES comes first, the peptide text is derived from it.
# Columns and labels:
# [1] = target: T1, Renin (Homo sapiens, UniProt P00797); assay: Compound was evaluated for competitive Renin inhibitory activity against human amniotic renin; Competitive
# T1 sequence (P00797 whole entry): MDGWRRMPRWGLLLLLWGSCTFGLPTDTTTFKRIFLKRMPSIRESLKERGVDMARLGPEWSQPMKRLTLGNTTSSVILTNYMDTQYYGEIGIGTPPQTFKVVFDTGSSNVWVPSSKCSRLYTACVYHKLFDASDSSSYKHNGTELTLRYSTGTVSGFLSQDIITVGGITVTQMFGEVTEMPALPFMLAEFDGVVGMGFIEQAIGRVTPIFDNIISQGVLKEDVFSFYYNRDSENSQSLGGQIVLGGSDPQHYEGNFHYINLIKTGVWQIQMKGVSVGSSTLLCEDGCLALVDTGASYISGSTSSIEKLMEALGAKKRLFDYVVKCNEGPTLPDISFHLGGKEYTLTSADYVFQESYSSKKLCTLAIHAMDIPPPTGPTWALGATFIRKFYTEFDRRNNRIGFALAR
# [2] = target: Renin (Sus scrofa); assay: Compound was evaluated for Non-competitive Renin inhibitory activity against hog kidney renin; Non competitive
smiles,measurement,setting,value
COC(=O)[C@H](Cc1ccccc1)NC(=O)[C@@H](NC(=O)CNC(=O)[C@@H](N)CC(C)C)C(C)C (H-LGVF-OMe),Ki,[1],1000 µM
COC(=O)[C@H](Cc1ccccc1)NC(=O)[C@@H](NC(=O)[C@H](CC(C)C)NC(=O)[C@@H](N)CC(C)C)C(C)C (H-LLVF-OMe),Ki,[2],500 µM
